Laboratory results as given in patent US7160894B2, “Tricyclic compound” (Asahi Kasei Pharma Corporation, priority 2003, dated 2007).

Experiments:
[1] = system: lipopolysaccharide-induced pulmonary inflammation; assay: Pulmonary inflammation suppressing action, LPS-induced (Test Example 8); assay type: in vivo, BALB/c female mice; settings: mice, LPS inhalation, test compound by inhalation over 10 minutes, 3 hours after administration
Text: According to Gonzales de Moraes, V L., et al., Br. J. Pharmacol., 123, pp. 631–6, 1998, suppressing action on pulmonary inflammation was studied. BALB/c female mice (7-week old) were used for the test, as the compound administration group and positive control group, each consisting of 7 mice, as well as the negative control group consisting of 5 mice. For induction of inflammation, a 0.03% physiological saline solution of a lipopolysaccharide (LPS, a mixture derived from Escherichia coli O55 and B5 strains, Sigma) was used. A test compound was dissolved in physiological saline to prepare solutions of various concentrations. The test animals were first inhaled with the aforementioned lipopolysaccharide solution for 10 minutes by using a pressurization type nebulizer (PARI-IS2) to induce inflammation. Then, 1 minute after the completion of the inhalation of the lipopolysaccharide solution, the animals were administered with a solution of test compound at various concentrations over 10 minutes by inhalation using the aforementioned nebulizer. The mice of the positive control group were administered with the same volume of physiological saline instead of the test compound solution over 10 minutes by inhalation. Three hours after the administration of the test compound, pulmonary cavities of the test animals were washed with physiological saline, and the total infiltrated leucocyte (WBC) number was counted.

[2] = system: cerebral hippocampal neurons; assay: Neurite outgrowth action (Test Example 5); assay type: cell-based, Sprague-Dawley rats; settings: rat hippocampal neurons, 24 hours after addition
Protocol: From 18 day-old Sprague-Dawley rats, cerebral hippocampal neurons were prepared according to the method of Neuman et al. (Neuman, H. R. et al., J. Neurosci., 22, pp. 854–862, 2002). The prepared neurons were cultured for 24 hours according to the method of Tanaka et al. (Tanaka, H. et al., J. Cell Biol., 158 (2), pp. 321–329, 2002), then the medium was exchanged with fresh medium, and test medicaments of various concentrations or equivalent amounts of vehicle were added. Twenty-four hours after the addition of the medicaments, neurite length of each neuron was measured for the medicament-added group and the no-addition group, and compared. The neurite length was evaluated according to the method of Neuman et al. (Neuman, H. R. et al., J. Neurosci., 22, pp. 854–862, 2002).

[3] = system: thoracic aorta constricted with phenylephrine; assay: Vasoconstriction inhibitory action (Test Example 2); set-up: species or system Rats (Wistar); settings: test compound 1 μM; rat thoracic aorta constricted with phenylephrine 1 μM
Text: Rats (Wistar, 11-week old) were bleeded to death and laparotomized to take out the thoracic aorta. That aorta was cut into a ring of a length of about 3 mm in a conventional manner (Asano, T., et al., J. Pharmacol. Exp. Ther., 241, pp. 1033–1040 (1987)) and hung in 10-ml organ bath filled with Krebs-Hensright nutrient solution bubbled with a mixed gas of 95% O2 and 5% CO2. One end of the blood vessel was connected to an isometric transducer (FD Pickup TB-912T, Nihon Kohden) and applied with 2.5 g of resting tension, and constriction and relaxation reactions of the aorta were recorded.
The aorta was constricted with phenylephrine (1 μM, Sigma) and then added with a test compound (1 μM), and the vasoconstriction inhibitory action thereof was observed. The vasoconstriction inhibitory actions of the test compounds were calculated as relaxation ratios, which were based on the vasoconstriction with phenylephrine observed immediately before the addition of the test compounds taken as 100%.

[4] = system: ovalbumin-induced constriction of respiratory tract; assay: Respiratory tract constriction suppressing action, administration by inhalation (Test Example 3); assay type: in vivo, Hartley guinea pigs; settings: ovalbumin-immunized guinea pigs, 2 ml solution by inhalation over 5 minutes
Protocol: Four-week old Hartley guinea pigs (male) were immunized by intraperitoneal administration of ovalbumin (Sigma, Grade V) in amounts of 1 mg for each animal on the day on which the experiment was started, 3 mg for each animal after 2 days, and 10 mg for each animal after 4 days. Further, the respiratory tract constriction suppression action of the test compounds was also evaluated by inhalation. Twelve to fourteen days after the final sensitization, 10 mg/kg of pyrilamine (Sigma), 5 mg/kg of indomethacin (Wako), or 0.1 mg/kg of propranolol (Sigma) was intraperitoneally administered. Then, 30 minutes after the administration, a 0.1% ovalbumin aqueous solution was inhaled by using a pressurization type nebulizer (PARI-IS2) to induce constriction of the respiratory tract. Ten minutes after the induction, 2 ml of a solution of a test compound prepared at various concentrations was filled in the aforementioned nebulizer, and administered by inhalation over 5 minutes. After the administration of pyrilamine and other drugs, airway resistance value was continuously measured to determine effectiveness.

[5] = system: ovalbumin-induced constriction of respiratory tract; assay: Respiratory tract constriction suppressing action, intravenous administration (Test Example 3); assay type: in vivo, Hartley guinea pigs; settings: ovalbumin-immunized guinea pigs, administered from cannula in hind leg vein, measured for 15 minutes
Protocol: Four-week old Hartley guinea pigs (male) were immunized by intraperitoneal administration of ovalbumin (Sigma, Grade V) in amounts of 1 mg for each animal on the day on which the experiment was started, 3 mg for each animal after 2 days, and 10 mg for each animal after 4 days. Twelve to fourteen days after the final immunization, the ovalbumin-immunized guinea pigs were anesthetized by intraperitoneal administration of about 40 mg/kg of pentobarbital (Somnopentyl), and the tracheas were taken out. Subsequently, a cannula (SP-110, Natsume) was inserted into each trachea, and one end of the cannula was connected to an artificial respirator (Model-b83, Harvard). The aeration conditions were set at 6 ml per kilogram and 60 times per 1 minute. Further, a cannula for medicament administration (JMS wing needle 23G 3/4) was inserted into a hind leg vein. Myoblock (Organon Technica) was administered in an amount of 0.5 mg/kg from the cannula inserted into the hind leg vein to stop the spontaneous breathing, and after 2 or 3 minutes, 0.3 mg/kg of ovalbumin was administered to induce constriction of respiratory tract. The increase of airway resistance value 2 minutes after the induction (measurement apparatuses: pressure transducer TR-603T, respiratory amplifier AR-601G, and recorder RTA-3100, Nihon Kohden Corp.) was confirmed to be above 80 cm H2O or higher, and then, a solution of a test medicament was administered from the cannula inserted into the hind leg vein, and the airway resistance value was continuously measured for 15 minutes after the administration to determine the effect.

intraocular pressure = assay: Intraocular pressure reducing action (Test Example 4); assay type: in vivo, Japanese white rabbit; settings: rabbit, 50 μl of aqueous solution dropped to the left eye
Protocol: A Japanese white rabbit having a body weight of about 2 kg was placed in a positioner and naturalized for one week before the experiment. An ophthalmologic local anesthesant (Benoxil) was administered to the left eye, and then intraocular pressure was measured by using a tonometer (Classic 30, Solan). The initial value of the intraocular pressure was measured, then 50 μl of an aqueous solution of a test compound was dropped to the left eye at various concentrations, and the intraocular pressure was measured with passage of time.

[6] = system: myosin regulatory light chain; settings: mesenteric artery, iris smooth muscle, astrocyte; cited from earlier work

Compound	pulmonary inflammation, total infiltrated leucocyte (WBC) number [1]	neurite outgrowth (neurite length) [2]	vasoconstriction inhibitory action (relaxation ratio) [3]	improvement of constriction of respiratory tract (airway resistance value) [4]	improvement of constriction of respiratory tract (airway resistance value) [5]	intraocular pressure reducing action (intraocular pressure)	inhibition of phosphorylation of the myosin regulatory light chain [6]
Cl.O=C(O)CN1CCC(N2CCc3cncc4cccc2c34)CC1 [Example 17]	significantly improved the pathological condition	significant neurite outgrowth axis extension	significant vasoconstriction inhibitory action	significantly improved the constriction of respiratory tract	significantly improved the constriction of respiratory tract	–	–
Cl.NC(=O)CN1CCC(N2CCc3cncc4cccc2c34)CC1 [Example 20]	significantly improved the pathological condition	significant neurite outgrowth axis extension	significant vasoconstriction inhibitory action	significantly improved the constriction of respiratory tract	significantly improved the constriction of respiratory tract	significant intraocular pressure reducing action	–
Cl.NCCN[C@H]1CC[C@H](N2CCc3cncc4cccc2c34)CC1 [Example 24]	significantly improved the pathological condition	significant neurite outgrowth axis extension	significant vasoconstriction inhibitory action	significantly improved the constriction of respiratory tract	significantly improved the constriction of respiratory tract	–	–
CC1CNCCN1S(=O)(=O)c1cccc2cnccc12 (centres unmarked) [Example H-7, 1-(5-isoquinolinesulfonyl)-2-methylpiperazine]	–	–	–	–	–	–	inhibits phosphorylation of the myosin regulatory light chain
